Tested on: HEK293T cells carrying the ATF4 luciferase reporter
Assay: ATF4-Luc assay (in vitro model of VWMD)
Format: cell-based, human
Conditions: Homo sapiens, HEK-293T, 1 μg/mL tunicamycin, 7 hours, One Glo luminescence
In short: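 Tunicamycin (1 μg/mL) stress with co-added compound for 7 hours in HEK293T cells stably carrying an ATF4 5′-UTR–luciferase reporter. EC50 values come from the luminescent signal (One Glo).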

SMILES | EC50 [nM]
O=C1C[C@H](C(=O)N[C@H]2CC[C@H](N3CCN(C4CC(OC(F)(F)F)C4)C3=O)CC2)Oc2ccc(Cl)cc21 (stereo partly drawn) [Compound 188, (2R)-6-chloro-4-oxo-N-[(1r,4R)-4-{2-oxo-3-[3-(trifluoromethoxy)cyclobutyl]imidazolidin-1-yl}cyclohexyl]-3,4-dihydro-2H-1-benzopyran-2-carboxamide] | > 2000
O=C(CO[C@H]1C[C@@H](OC(F)(F)F)C1)NC12CCC(NC(=O)[C@H]3CC(=O)c4cc(F)c(F)cc4O3)(CC1)CC2 [Compound 189, (2R)-6,7-difluoro-4-oxo-N-[4-(2-{[cis-3-(trifluoromethoxy)cyclobutyl]oxy}acetamido)bicyclo[2.2.2]octan-1-yl]-3,4-dihydro-2H-1-benzopyran-2-carboxamide] | 10 to 50
O=C(NC12CCC(c3nnc([C@H]4C[C@@H](OC(F)(F)F)C4)o3)(CC1)OC2)[C@@H]1C[C@H](O)c2cc(Cl)ccc2O1 [Compound 190, (2S,4S)-6-chloro-4-hydroxy-N-(1-{5-[cis-3-(trifluoromethoxy)cyclobutyl]-1,3,4-oxadiazol-2-yl}-2-oxabicyclo[2.2.2]octan-4-yl)-3,4-dihydro-2H-1-benzopyran-2-carboxamide] | 50 to 250
O=C(NC12CCC(c3nnc([C@H]4C[C@@H](OC(F)(F)F)C4)o3)(CC1)OC2)[C@H]1C[C@@H](O)c2cc(Cl)ccc2O1 [Compound 191, (2R,4R)-6-chloro-4-hydroxy-N-(1-{5-[cis-3-(trifluoromethoxy)cyclobutyl]-1,3,4-oxadiazol-2-yl}-2-oxabicyclo[2.2.2]octan-4-yl)-3,4-dihydro-2H-1-benzopyran-2-carboxamide] | < 10
O=C(CO[C@H]1C[C@@H](OC(F)(F)F)C1)NC12CCC(NC(=O)[C@H]3CC(=O)c4cc(Cl)ccc4O3)(CC1)CC2 [Compound 192, (2R)-6-chloro-4-oxo-N-[4-(2-{[cis-3-(trifluoromethoxy)cyclobutyl]oxy}acetamido)bicyclo[2.2.2]octan-1-yl]-3,4-dihydro-2H-1-benzopyran-2-carboxamide] | 10 to 50
O=C(NC12CCC(C(=O)NCc3ccc(C(F)(F)F)cn3)(CC1)CC2)[C@@H]1C[C@@H](O)c2cc(Cl)ccc2O1 [Compound 193, (2S,4R)-6-chloro-4-hydroxy-N-[4-({[5-(trifluoromethyl)pyridin-2-yl]methyl}carbamoyl)bicyclo[2.2.2]octan-1-yl]-3,4-dihydro-2H-1-benzopyran-2-carboxamide] | 50 to 250
O=C(CO[C@H]1C[C@@H](OC(F)(F)F)C1)NC12CCC(NC(=O)[C@H]3C[C@@H](O)c4cc(F)c(F)cc4O3)(CC1)CC2 [Compound 194, (2R,4R)-6,7-difluoro-4-hydroxy-N-[4-(2-{[cis-3-(trifluoromethoxy)cyclobutyl]oxy}acetamido)bicyclo[2.2.2]octan-1-yl]-3,4-dihydro-2H-1-benzopyran-2-carboxamide] | < 10
O=C(CO[C@H]1C[C@@H](OC(F)(F)F)C1)NC12CCC(NC(=O)[C@H]3C[C@@H](O)c4cc(Cl)ccc4O3)(CC1)CC2 [Compound 195, (2R,4R)-6-chloro-4-hydroxy-N-[4-(2-{[cis-3-(trifluoromethoxy)cyclobutyl]oxy}acetamido)bicyclo[2.2.2]octan-1-yl]-3,4-dihydro-2H-1-benzopyran-2-carboxamide] | < 10
O=C(CO[C@H]1C[C@@H](OC(F)(F)F)C1)NC12CCC(NC(=O)[C@H]3C[C@@H](O)c4cc(Cl)ccc4O3)(C1)C2 [Compound 196, (2R,4R)-6-chloro-4-hydroxy-N-[4-(2-{[cis-3-(trifluoromethoxy)cyclobutyl]oxy}acetamido)bicyclo[2.1.1]hexan-1-yl]-3,4-dihydro-2H-1-benzopyran-2-carboxamide] | 10 to 50
O=C(N[C@H]1CC[C@H](N2CCN(C3CC(OC(F)(F)F)C3)C2=O)CC1)[C@H]1C[C@@H](O)c2cc(Cl)ccc2O1 (stereo partly shown) [Compound 197] | > 2000
O=C(N[C@H]1CC[C@H](C(=O)NCc2ccc(C(F)(F)F)cn2)CC1)[C@H]1C[C@H](O)c2cc(Cl)ccc2O1 [Compound 198, (2R,4S)-6-chloro-4-hydroxy-N-[trans-4-({[5-(trifluoromethyl)pyridin-2-yl]methyl}carbamoyl)cyclohexyl]-3,4-dihydro-2H-1-benzopyran-2-carboxamide] | 250 to 500
O=C(NC12CC(n3cnc(-c4ccc(C(F)(F)F)nc4)c3)(C1)C2)[C@H]1C[C@@H](O)c2cc(Cl)ccc2O1 [Compound 201, (2R,4R)-6-chloro-4-hydroxy-N-(3-{4-[6-(trifluoromethyl)pyridin-3-yl]-1H-imidazol-1-yl}bicyclo[1.1.1]pentan-1-yl)-3,4-dihydro-2H-1-benzopyran-2-carboxamide] | < 10
O=C(NC12CCC(c3nnc([C@H]4C[C@@H](OC(F)(F)F)C4)o3)(CC1)CC2)[C@H]1C[C@@H](O)c2cc(Cl)ccc2O1 [Compound 203, (2R,4R)-6-chloro-4-hydroxy-N-(4-{5-[cis-3-(trifluoromethoxy)cyclobutyl]-1,3,4-oxadiazol-2-yl}bicyclo[2.2.2]octan-1-yl)-3,4-dihydro-2H-1-benzopyran-2-carboxamide] | < 10
O=C(NC12CCC(c3nnc([C@H]4C[C@@H](OC(F)(F)F)C4)o3)(CC1)CC2)[C@@H]1C[C@H](O)c2cc(Cl)ccc2O1 [Compound 204, (2S,4S)-6-chloro-4-hydroxy-N-(4-{5-[cis-3-(trifluoromethoxy)cyclobutyl]-1,3,4-oxadiazol-2-yl}bicyclo[2.2.2]octan-1-yl)-3,4-dihydro-2H-1-benzopyran-2-carboxamide] | 10 to 50
O=C(NC12CCC(C(=O)N[C@H]3C[C@@H](OC(F)(F)F)C3)(CC1)OC2)[C@H]1C[C@@H](O)c2cc(Cl)ccc2O1 [Compound 205, (2R,4R)-6-chloro-4-hydroxy-N-(1-{[cis-3-(trifluoromethoxy)cyclobutyl]carbamoyl}-2-oxabicyclo[2.2.2]octan-4-yl)-3,4-dihydro-2H-1-benzopyran-2-carboxamide] | 50 to 250
O=C(NC12CCC(C(=O)N[C@H]3C[C@@H](OC(F)(F)F)C3)(CC1)OC2)[C@@H]1C[C@H](O)c2cc(Cl)ccc2O1 [Compound 206, (2S,4S)-6-chloro-4-hydroxy-N-(1-{[cis-3-(trifluoromethoxy)cyclobutyl]carbamoyl}-2-oxabicyclo[2.2.2]octan-4-yl)-3,4-dihydro-2H-1-benzopyran-2-carboxamide] | 500 to 2000
O=C(N[C@H]1CC[C@H](N2CCN(c3ccc(Cl)c(F)c3)C2=O)CC1)[C@H]1C[C@@H](O)c2cc(Cl)ccc2O1 [Compound 207, (2R,4R)-6-chloro-N-{trans-4-[3-(4-chloro-3-fluorophenyl)-2-oxoimidazolidin-1-yl]cyclohexyl}-4-hydroxy-3,4-dihydro-2H-1-benzopyran-2-carboxamide] | < 10
O=C(CO[C@H]1C[C@@H](OC(F)(F)F)C1)NC12CC(NC(=O)[C@@H]3C[C@@H](O)c4cc(Cl)ccc4O3)(C1)C2 [Compound 208, (2S,4R)-6-chloro-4-hydroxy-N-[3-(2-{[cis-3-(trifluoromethoxy)cyclobutyl]oxy}acetamido)bicyclo[1.1.1]pentan-1-yl]-3,4-dihydro-2H-1-benzopyran-2-carboxamide] | < 10
O=C(NC12CC(n3cc(-c4ccc(Cl)cc4)cn3)(C1)C2)[C@H]1C[C@@H](O)c2cc(Cl)ccc2O1 [Compound 212, (2R,4R)-6-chloro-N-{3-[4-(4-chlorophenyl)-1H-pyrazol-1-yl]bicyclo[1.1.1]pentan-1-yl}-4-hydroxy-3,4-dihydro-2H-1-benzopyran-2-carboxamide] | < 10
